Test results: the NIST ThermoML archive (doi:10.1016/j.jct.2016.02.007)

Experiment: wn = mass fraction of the nth substance listed
Details: 101.3 kPa, Liquid, Vibrating tube method

CN(C)CCCO [3-dimethylamino-1-propanol] + O
mass density [kg/m3]
Details	w1 = 0.1	w1 = 0.2	w1 = 0.3	w1 = 0.4	w1 = 0.5	w1 = 0.6	w1 = 0.7	w1 = 0.8	w1 = 0.9	w1 = 1
293.15 K	992.9	989.7	986.6	981.7	975.1	962.4	948.3	933.1	910.9	886.7
298.15 K	991.5	987.7	983.9	978.3	971.4	958.5	944.3	929.2	907.1	883
303.15 K	989.8	985.5	980.9	974.9	967.6	954.6	940.2	925.2	903.2	879.1
308.15 K	987.9	983.1	978	971.4	963.8	950.6	936.1	921.2	899.2	875.1
313.15 K	985.9	980.4	974.8	967.8	959.9	946.5	932	917.1	895.2	871.2
318.15 K	983.6	977.3	971.6	964.2	956	942.4	927.8	912.9	891.1	867.2
323.15 K	981.2	975	968.2	960.4	952.1	938.2	923.6	908.7	887	863.1
328.15 K	978.6	972	964.7	956.7	948	934	919.3	904.5	882.9	859.1
333.15 K	975.9	968.9	961	952.8	943.9	929.7	915	900.2	878.7	855
338.15 K	973.1	965.8	957.9	948.9	939.8	925.4	910.6	895.8	874.4	850.8
343.15 K	970.1	962.5	954.2	944.9	935.6	921	906.2	891.4	870.1	846.7
